ChEMBL document CHEMBL1138847, “Improved structure-activity relationship analysis of HIV-1 protease inhibitors using interaction kinetic data” (J Med Chem, 2004)

How the values were obtained:
[1] = system: MT4; assay: Effective dose of compound required to inhibit replication of human immunodeficiency virus type 1 in MT-4 cells; assay type: functional; conditions: read-out: ED50 (the source's name)
[2] = molecular target: T1, Human immunodeficiency virus type 1 protease (Human immunodeficiency virus 1, UniProt Q72874); assay: Inhibition constant for human immunodeficiency virus type 1 protease
[3] = molecular target: T1, Human immunodeficiency virus type 1 protease; assay: Binding affinity for human immunodeficiency virus type 1 protease
[4] = molecular target: Human immunodeficiency virus type 1 protease (Human immunodeficiency virus 1) (UniProt Q72874)
Description: Dissociation rate constant for human immunodeficiency virus type 1 protease

[5] = molecular target: Human immunodeficiency virus type 1 protease (Human immunodeficiency virus 1) (UniProt Q72874); remark: listed apart in the source
Description: Association rate constant for human immunodeficiency virus type 1 protease

SMILES	EC50 [1]	Ki [2]	Kd [3]	k off [4]	k on [5]
CC(C)(C)NC(=O)c1ccccc1NC[C@@H](O)[C@H](Cc1ccccc1)NC(=O)[C@H](CC(N)=O)NC(=O)OCc1ccccc1	3310 nM	–	–	–	–
CC(C)[C@H](C)C(=O)NC(=O)[C@H](O)[C@H](O)[C@@H](O)[C@@H](Oc1ccc(C2=C(O)C(=O)CCC2)cc1)C(=O)NC(=O)[C@@H](C)C(C)C	5600 nM	0.3 nM	17.5 nM	0.000487 s⁻¹	29300 M⁻¹ s⁻¹
Cc1cc(NS(=O)(=O)c2ccc(N)cc2)no1 [SULFAMETHOXAZOLE]	> 79000 nM	10.1 nM	577 nM	0.06 s⁻¹	188000 M⁻¹ s⁻¹
CCO[C@@H](C(=O)NC(=O)[C@@H](C)C(C)C)[C@H](O)[C@@H](O)[C@@H](O)C(=O)NC(=O)[C@@H](C)C(C)C	> 192000 nM	–	38400 nM	0.00485 s⁻¹	134 M⁻¹ s⁻¹
CC(C)[C@H](C)C(=O)NC(=O)[C@H](O)[C@H](O)[C@@H](O)[C@@H](Oc1ccc(-c2cccc([N+](=O)[O-])c2)cc1)C(=O)NC(=O)[C@@H](C)C(C)C	160 nM	1.4 nM	18.2 nM	0.000817 s⁻¹	181000 M⁻¹ s⁻¹
CC(C)[C@H](C)C(=O)NC(=O)[C@H](O)[C@H](O)[C@@H](O)[C@@H](Oc1ccccc1)C(=O)NC1c2ccccc2C[C@@H]1O (stereo partly drawn)	120 nM	0.05 nM	4.42 nM	0.02 s⁻¹	5.97e+06 M⁻¹ s⁻¹
CC(C)[C@H](C)C(=O)NC(=O)[C@H](O)[C@@H](O)[C@H](O)[C@@H](Oc1ccccc1)C(=O)NC(=O)[C@@H](C)C(C)C	22900 nM	40 nM	2990 nM	0.02 s⁻¹	9200 M⁻¹ s⁻¹
O=C(NC1c2ccccc2C[C@@H]1O)[C@H](O)[C@H](O)[C@@H](O)[C@@H](Oc1ccccc1)C(=O)NC1c2ccccc2C[C@@H]1O (stereo partly drawn)	100 nM	0.6 nM	13.9 nM	0.01 s⁻¹	6.39e+06 M⁻¹ s⁻¹
CC(C)c1nc(CN(C)C(=O)N[C@H](C(=O)N[C@@H](Cc2ccccc2)C[C@H](O)[C@H](Cc2ccccc2)NC(=O)OCc2cncs2)C(C)C)cs1 [RITONAVIR]	50 nM	–	–	–	–
COC(=O)N[C@H](C(=O)N[C@@H](Cc1ccccc1)[C@@H](O)CN(Cc1ccc(-c2ccccn2)cc1)NC(=O)[C@@H](NC(=O)OC)C(C)(C)C)C(C)(C)C [ATAZANAVIR]	6 nM	0.24 nM	0.4 nM	0.00069 s⁻¹	1.67e+06 M⁻¹ s⁻¹
O=S1(=O)N(Cc2ccc(CO)cc2)[C@H](COc2ccccc2)[C@H](O)[C@@H](O)[C@@H](COc2ccccc2)N1Cc1ccc(CO)cc1	1550 nM	–	–	0.0273 s⁻¹	–
Cc1c(O)cccc1C(=O)N[C@@H](CSc1ccccc1)[C@H](O)CN1C[C@H]2CCCC[C@H]2C[C@H]1C(=O)NC(C)(C)C	20 nM	–	–	–	–
CC(C)[C@H](C)C(=O)NC(=O)[C@H]([O-])[C@H](O)[C@@H](O)[C@@H](Oc1ccc(C2=CC=[S+]C2)cc1)C(=O)NC(=O)[C@@H](C)C(C)C	40 nM	1.2 nM	3.04 nM	0.000432 s⁻¹	348000 M⁻¹ s⁻¹
O=C(NC1c2ccccc2C[C@H]1O)[C@H](O)C[C@@H](O)[C@@H](Oc1ccccc1)C(=O)NC1c2ccccc2C[C@@H]1O (stereo partly drawn)	1440 nM	–	35.8 nM	0.02 s⁻¹	666000 M⁻¹ s⁻¹
COC(=O)/C=C/c1ccc(O[C@@H](C(=O)NC(=O)[C@@H](C)C(C)C)[C@H](O)[C@@H](O)[C@@H](O)C(=O)NC(=O)[C@@H](C)C(C)C)cc1	2580 nM	0.09 nM	1.95 nM	0.000365 s⁻¹	204000 M⁻¹ s⁻¹
CC(C)(C)NC(=O)c1ccccc1NC[C@H](O)[C@H](Cc1ccccc1)NC(=O)[C@H](CC(N)=O)NC(=O)c1ccc2ccccc2n1	10100 nM	–	–	–	–
CC(C)[C@H](C)C(=O)NC(=O)[C@H](O)[C@H](O)[C@@H](O)[C@@H](Oc1ccc(Br)cc1)C(=O)NC(=O)[C@@H](C)C(C)C	650 nM	0.3 nM	21.1 nM	0.00169 s⁻¹	–
CC(C)[C@H](C)C(=O)NC(=O)[C@H](O)[C@H](O)[C@@H](O)[C@@H](Oc1ccc(-c2ccccn2)cc1)C(=O)NC(=O)[C@@H](C)C(C)C	640 nM	0.61 nM	1.18 nM	0.000373 s⁻¹	323000 M⁻¹ s⁻¹
CC(C)(C)NC(=O)[C@@H]1C[C@@H]2CCCC[C@@H]2CN1C[C@@H](O)[C@H](Cc1ccccc1)NC(=O)[C@H](CC(N)=O)NC(=O)c1ccc2ccccc2n1	10 nM	–	–	–	–
CC(C)[C@H](C)C(=O)NC(=O)[C@H](O)[C@H](O)[C@@H](O)[C@@H](Oc1ccccc1)C(=O)NC(=O)[C@@H](C)C(C)C	1320 nM	0.4 nM	10.8 nM	0.00367 s⁻¹	355000 M⁻¹ s⁻¹
C[C@@H](Cc1ccc(O)cc1)C(=O)NC(=O)[C@H](O)[C@H](O)[C@@H](O)[C@@H](Oc1ccccc1)C(=O)NC(=O)[C@@H](C)Cc1ccc(O)cc1	> 67000 nM	5000 nM	309000 nM	0.06 s⁻¹	172 M⁻¹ s⁻¹
Cc1cccc(C)c1OCC(=O)N[C@@H](Cc1ccccc1)[C@@H](O)C[C@H](Cc1ccccc1)NC(=O)[C@H](C(C)C)N1CCCNC1=O [LOPINAVIR]	10 nM	–	–	0.000654 s⁻¹	6.63e+06 M⁻¹ s⁻¹
CC(C)[C@H](C)C(=O)NC(=O)[C@H](O)[C@H](O)[C@@H](O)[C@@H](Oc1ccc(-c2nccs2)cc1)C(=O)NC(=O)[C@@H](C)C(C)C	240 nM	0.55 nM	0.64 nM	0.000303 s⁻¹	477000 M⁻¹ s⁻¹
CC(C)[C@H](C)C(=O)NC(=O)[C@H](O)[C@H](O)[C@@H](O)[C@@H](Oc1ccc(CCc2ccccc2)cc1)C(=O)NC(=O)[C@@H](C)C(C)C	2050 nM	0.8 nM	34.2 nM	0.00163 s⁻¹	81100 M⁻¹ s⁻¹
CC(C)CN(C[C@@H](O)[C@H](Cc1ccccc1)NC(=O)O[C@H]1CCOC1)S(=O)(=O)c1ccc(N)cc1	80 nM	0.23 nM	1.1 nM	0.00488 s⁻¹	4.43e+06 M⁻¹ s⁻¹
CC(NO)c1cccc(CN2[C@H](COc3ccccc3)[C@H](O)[C@@H](O)[C@@H](COc3ccccc3)N(Cc3cccc(C(C)NO)c3)S2(=O)=O)c1 (stereo partly drawn)	2900 nM	5.6 nM	169 nM	0.04 s⁻¹	512000 M⁻¹ s⁻¹
CC(C)(C)NC(=O)[C@@H]1CN(Cc2cccnc2)CCN1C[C@@H](O)C[C@@H](Cc1ccccc1)C(=O)N[C@H]1c2ccccc2C[C@H]1O	50 nM	–	–	–	–
